Assay results published in patent US11072634B2, “Inhibitors of transglutaminases” (Zedira GmbH, priority 2016, dated 2021).

Molecular target: T1, recombinant human tissue transglutaminase (rhTG2) (Homo sapiens, UniProt P21980)
T1 construct: purchased Zedira 1022 (so in the source); T022)
T1 sequence (P21980 1-687): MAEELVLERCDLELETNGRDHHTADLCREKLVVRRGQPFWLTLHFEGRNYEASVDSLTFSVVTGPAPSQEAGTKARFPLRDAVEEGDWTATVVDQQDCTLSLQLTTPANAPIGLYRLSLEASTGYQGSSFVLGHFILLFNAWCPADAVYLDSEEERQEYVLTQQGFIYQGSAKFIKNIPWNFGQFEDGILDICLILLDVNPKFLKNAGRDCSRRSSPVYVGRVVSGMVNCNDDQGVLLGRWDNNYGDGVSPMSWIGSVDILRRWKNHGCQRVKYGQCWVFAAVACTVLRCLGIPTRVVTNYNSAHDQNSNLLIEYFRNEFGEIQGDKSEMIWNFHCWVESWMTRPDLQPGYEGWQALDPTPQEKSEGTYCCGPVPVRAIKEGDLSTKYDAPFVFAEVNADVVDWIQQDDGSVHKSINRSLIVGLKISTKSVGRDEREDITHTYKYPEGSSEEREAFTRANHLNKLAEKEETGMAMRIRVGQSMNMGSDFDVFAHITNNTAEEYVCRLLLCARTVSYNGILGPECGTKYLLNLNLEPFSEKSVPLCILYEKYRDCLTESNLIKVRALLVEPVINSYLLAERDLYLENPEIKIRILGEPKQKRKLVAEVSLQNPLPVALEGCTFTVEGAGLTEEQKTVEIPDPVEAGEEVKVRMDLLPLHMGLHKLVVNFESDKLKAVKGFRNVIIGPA
Test: Inhibition of rec. human tissue transglutaminase (fluorescence, Abz-APE(CAD-DNP)QEA-OH)
Format: biochemical
Conditions: Table 2, TG2 inhibitors
Description: Method for Inhibition Studies of Rec. Human Tissue Transglutaminase (rhTG2)
250 μg lyophilized His-tagged recombinant human tissue transglutaminase (His6-rhTG2, Zedira product 1022) is reconstituted in H2O (volume depends on original volume before lyophilization) resulting in a buffer containing 10 mM Tris-HCl, 150 mM NaCl, 1 mM EDTA, 5 mM DTT, 189 mg/ml maltodextrin, pH=8.1. The rhTG2 stock solution is diluted in buffer (50 mM Tris-HCl, 7.5 mM CaCl2, 150 mM NaCl, pH=7.4) to give a working solution of 100 U/ml (based on the amine-incorporation activity measured using T036, described below).
A 10 mM inhibitor stock solution is prepared in DMSO, and from this stock solution a serial 1:2-fold dilution series is prepared, also in DMSO. Each of these initial dilutions is subsequently diluted 1:50-fold with buffer (50 mM Tris-HCl, 7.5 mM CaCl2, 150 mM NaCl, pH=7.4) to yield the final working dilutions containing 2% (v/v) DMSO. 15 μl of inhibitor working dilution are added per well of a 96 well microtiter plate. As control, 15 μl of a 2% (v/v) DMSO solution prepared using the buffer mentioned above are added per well.
600 μl of His6-rhTG2 working solution are added to 11.4 ml assay buffer (50 mM Iris-HCl, 7.5 mM CaCl2, 150 mM NaCl, 5 mM DTI, 13.4 mM glycine methylester, 50 μM Abz-APE(CAD-DNP)QEA-OH, (Zedira product A102; patent No.: EP 1781807B1), pH=7.4). From this master-mix solution, 285 μl are added per well containing the inhibitor. Increase in fluorescence is measured using λex=313 nm and λem=418 nm at 37° C. for 20 min. A slope of the increase in fluorescence between 10 and 20 min is calculated for determination of the IC50 value (inhibitor concentration at which 50% of the initial TG2 activity is blocked).
Analysis of enzymatic activity is performed by calculation of the slope of an increase in fluorescence intensity. IC50 values are calculated by plotting the enzymatic activity (as percentage from control containing 2% DMSO instead of inhibitor) against the inhibitor concentration. IC50 is defined as the inhibitor concentration blocking 50%) of initial enzyme activity.

CCC(CC)CNC(=O)Cn1cccc(NC(=O)[C@H](CCC(=O)C(=O)NCC(=O)OC)NC(=O)c2cncn2C)c1=O [Compound E38, (S)-methyl 2-(6-(1-(2-(2-ethylbutylamino)-2-oxoethyl)-2-oxo-1,2-dihydropyridin-3-ylamino)-5-(1-methyl-1H-imidazole-5-carboxamido)-2,6-dioxohexanamido)acetat] gave an IC50 of 700 nM.
For CCOC(=O)Cn1cccc(NC(=O)[C@H](CCC(=O)C(=O)NC)NC(=O)c2cncn2C)c1=O [Compound E52, (S)-ethyl 2-(3-(2-(1-methyl-1H-imidazole-5-carboxamido)-6-(methylamino)-5,6-dioxohexanamido)-2-oxopyridin-1(2H)-yl)acetate], the IC50 was 500 nM.
CCC(CC)CNC(=O)Cn1cccc(NC(=O)[C@H](CCC(=O)C(=O)NC)NC(=S)Nc2ccccc2)c1=O [Compound E70, (S)—N1-(1-(2-(2-ethylbutylamino)-2-oxoethyl)-2-oxo-1,2-dihydropyridin-3-yl)-N6-methyl-5-oxo-2-(3-phenylthioureido)hexanediamide] showed an IC50 of 265 nM.
CCC(CC)CNC(=O)Cn1cccc(NC(=O)[C@H](CCC(=O)C(=O)OC)NC(=O)c2cncn2C)c1=O [Compound E77, (S)-methyl 6-(1-(2-(2-ethylbutylamino)-2-oxoethyl)-2-oxo-1,2-dihydropyridin-3-ylamino)-5-(1-methyl-1H-imidazole-5-carboxamido)-2,6-dioxohexanoate] was tested, and the IC50 was 200 nM.
In the case of CCC(CC)CNC(=O)Cn1cc(C)cc(NC(=O)[C@H](CCC(=O)C(=O)NC)NC(=O)c2cncn2C)c1=O [Compound E43, (S)—N1-(1-(2-(2-ethylbutylamino)-2-oxoethyl)-5-methyl-2-oxo-1,2-dihydropyridin-yl)-N6-methyl-2-(1-methyl-1H-imidazole-5-carboxamido)-5-oxohexanediamide], the IC50 is reported as 60 nM.
CCNC(=O)C(=O)CC[C@H](NC(=O)c1cncn1C)C(=O)Nc1cccn(CC(=O)NCC(CC)CC)c1=O [Compound E17, (S)—N1-ethyl-N6-(1-(2-(2-ethylbutylamino)-2-oxoethyl)-2-oxo-1,2-dihydropyridin-3-yl)-5-(1-methyl-1H-imidazole-5-carboxamido)-2-oxonexanediamide] gave an IC50 of 100 nM.
CCC(CC)CNC(=O)Cn1cccc(NC(=O)[C@H](CCC(=O)C(C)=O)NC(=O)c2cncn2C)c1=O [Compound E74, (S)—N-(1-(1-(2-(2-ethylbutylamino)-2-oxoethyl)-2-oxo-1,2-dihydropyridin-3-ylamino)-1,5,6-trioxoheptan-2-yl)-1-methyl-1H-imidazole-5-carboxamide] showed an IC50 of 125 nM.
CCC(CC)CNC(=O)Cn1cccc(NC(=O)[C@H](CCC(=O)C(=O)C2CC2)NC(=O)c2cncn2C)c1=O [Compound E75, (S)—N-(6-cyclopropyl-1-(1-(2-(2-ethylbutylamino)-2-oxoethyl)-2-oxo-1,2-dihydropyridin-3-ylamino)-1,5,6-trioxohexan-2-yl)-1-methyl-1H-imidazole-5-carboxamide] gave an IC50 of 135 nM.
Work on CCC(CC)CNC(=O)Cn1cccc(NC(=O)[C@H](CCC(=O)C(=O)NC2CC2)NC(=O)c2cncn2C)c1=O [Compound E19, (S)—N1-cyclopropyl-N6-(1-(2-(2-ethylbutylamino)-2-oxoethyl)-2-oxo-1,2-dihydropyridin-3-yl)-5-(1-methyl-1H-imidazole-5-carboxamido)-2-oxonexanediamide] yielded an IC50 of 350 nM.
CCC(CC)CNC(=O)Cn1c(C)ccc(NC(=O)[C@H](CCC(=O)C(=O)NC)NC(=O)c2cncn2C)c1=O [Compound E44, (S)—N1-(1-(2-(2-ethylbutylamino)-2-oxoethyl)-6-methyl-2-oxo-1,2-dihydropyridin-3-yl)-N6-methyl-2-(1-methyl-1H-imidazole-5-carboxamido)-5-oxohexanediamide] showed an IC50 of 80 nM.
CCC(CC)CNC(=O)Cn1cccc(NC(=O)[C@H](CCC(=O)C(=O)NC)NC(=O)Nc2ccccc2)c1=O [Compound E69, (S)—N1-(1-(2-(2-ethylbutylamino)-2-oxoethyl)-2-oxo-1,2-dihydropyridin-3-yl)-N6-methyl-5-oxo-2-(3-phenylureido)hexanediamide] was tested, and the IC50 was 275 nM.
